Molecular target: BRD4 (Homo sapiens (Human), UniProt O60885)
Details: read-out: BRD4 IC50 (μM gmean)

SMILES	IC50
COC(=O)N1c2ccc3c(nc(C(O)C4CCCCC4)n3C3CCCC(C(=O)O)C3)c2CC[C@@H]1C (stereo partly drawn) [Example 625]	1 to 1000 µM
COC(=O)N1c2ccc3c(nc(C(C)Cn4cccn4)n3C3CCC(C(=O)O)CC3)c2CC[C@@H]1C (stereo partly drawn) [Example 627]	1 to 1000 µM
COC(=O)N1c2ccc3c(nc(CCn4cc(Cl)cn4)n3[C@@H]3CCC[C@@H](C(=O)O)C3)c2CC[C@@H]1C [Example 628]	1 to 1000 µM
COC(=O)N1c2ccc3c(nc(CC(C(=O)O)c4ccc(C(F)F)cc4)n3C3COCC(F)(F)C3)c2CC[C@@H]1C (stereo partly drawn) [Example 629]	1 to 1000 µM
COC(=O)N1c2ccc3c(nc(CC(C(=O)O)c4ccccc4)n3C3CCCC(OC)C3)c2CC[C@@H]1C (stereo partly drawn) [Example 632]	1 to 1000 µM
COC(=O)N1c2ccc3c(nc(COc4ccccc4)n3[C@H]3CC[C@H](C(=O)O)CC3)c2CC[C@@H]1C [Example 633]	1 to 1000 µM
COC(=O)N1c2ccc3c(nc(CN4CCC5(CCC5)CC4=O)n3[C@@H]3CCC[C@@H](C(=O)O)C3)c2CC[C@@H]1C [Example 634]	1 to 1000 µM
COC(=O)N1c2ccc3c(nc(C(O)c4cc5c(cn4)OCC5)n3C3CCCC(C(=O)O)C3)c2CC[C@@H]1C (stereo partly drawn) [Example 636]	1 to 1000 µM
COC(=O)N1c2ccc3c(nc(Cc4ccc(NC(C)=O)c(F)c4)n3[C@H]3CC[C@H](C(=O)O)CC3)c2CC[C@@H]1C [Example 639]	1 to 1000 µM
COC(=O)N1c2ccc3c(nc(Cc4ccc(OC)c(OC)c4)n3[C@@H]3CCC[C@@H](C(=O)O)C3)c2CC[C@@H]1C [Example 641]	1 to 1000 µM
COC(=O)N1c2ccc3c(nc(Cn4cc(Cl)cn4)n3[C@@H]3CCC[C@@H](C(=O)O)C3)c2CC[C@@H]1C [Example 643]	1 to 1000 µM
COC(=O)N1c2ccc3c(nc(CC(C(=O)O)c4cccc(C)c4)n3C3CCCOC3)c2CC[C@@H]1C (stereo partly drawn) [Example 644]	1 to 1000 µM
COC(=O)N1c2ccc3c(nc(Cc4cncc(Cl)n4)n3[C@@H]3CCC[C@@H](C(=O)O)C3)c2CC[C@@H]1C [Example 645]	1 to 1000 µM
COC(=O)N1c2ccc3c(nc(C(C)(C)c4ccccc4)n3[C@H]3CC[C@H](C(=O)O)CC3)c2CC[C@@H]1C [Example 646]	1 to 1000 µM
COC(=O)N1c2ccc3c(nc(CCC4CCOCC4)n3[C@@H]3CCC[C@@H](C(=O)O)C3)c2CC[C@@H]1C [Example 648]	1 to 1000 µM
COC(=O)N1c2ccc3c(nc(C(C)Cn4cc(Cl)cn4)n3C3CCS(=O)(=O)C3)c2CC[C@@H]1C (stereo partly drawn) [Example 651]	1 to 1000 µM
COC(=O)N1c2ccc3c(nc(C(C)Cn4cc(C)cn4)n3C3CCC(C(=O)O)CC3)c2CC[C@@H]1C (stereo partly drawn) [Example 655]	1 to 1000 µM
COC(=O)N1c2ccc3c(nc(Cc4cc(Cl)cc(OC)c4)n3[C@H]3CC[C@H](C(=O)O)CC3)c2CC[C@@H]1C [Example 656]	1 to 1000 µM
COC(=O)N1c2ccc3c(nc(Cc4cccc(F)c4OC)n3[C@H]3CC[C@H](C(=O)O)CC3)c2CC[C@@H]1C [Example 661]	1 to 1000 µM
COC(=O)N1c2ccc3c(nc(Cc4ccc(Cl)cn4)n3[C@@H]3CCC[C@@H](C(=O)O)C3)c2CC[C@@H]1C [Example 663]	1 to 1000 µM
COC(=O)N1c2ccc3c(nc(Cc4ccc(N5CCCC5=O)cc4)n3[C@H]3CC[C@H](C(=O)O)CC3)c2CC[C@@H]1C [Example 664]	1 to 1000 µM
COC(=O)N1c2ccc3c(nc(Cc4cncc(C5CC5)n4)n3[C@@H]3CCC[C@@H](C(=O)O)C3)c2CC[C@@H]1C [Example 665]	1 to 1000 µM

SMILES	IC50
COC(=O)N1c2ccc3c(nc(C(CO)c4ccccc4)n3C3CCCC(C(=O)O)C3)c2CC[C@@H]1C (stereo partly drawn) [Example 668]	1 to 1000 µM
COC(=O)N1c2ccc3c(nc(Cc4cnc(Cl)cn4)n3[C@@H]3CCC[C@@H](C(=O)O)C3)c2CC[C@@H]1C [Example 669]	1 to 1000 µM
COC(=O)N1c2ccc3c(nc(C(C)Cc4cnn(C)c4)n3C3CCC(C(=O)O)CC3)c2CC[C@@H]1C (stereo partly drawn) [Example 671]	1 to 1000 µM
COC(=O)N1c2ccc3c(nc(C(c4ccc(OC)c(F)c4)C(C)C)n3C3CCC(C(=O)O)CC3)c2CC[C@@H]1C (stereo partly drawn) [Example 673]	1 to 1000 µM
COC(=O)N1c2ccc3c(nc(Cc4ccc(F)cc4)n3[C@@H]3CCC[C@@H](C(=O)O)C3)c2CC[C@@H]1C [Example 675]	1 to 1000 µM
COC(=O)N1c2ccc3c(nc(CC(C(=O)O)c4cccc(C(F)F)c4)n3C3CCCOC3)c2CC[C@@H]1C (stereo partly drawn) [Example 676]	1 to 1000 µM
COC(=O)N1c2ccc3c(nc(CC(C(=O)O)c4ccccc4)n3-c3ccc(C#N)cc3)c2CC[C@@H]1C (stereo partly drawn) [Example 680]	1 to 1000 µM
COC(=O)N1c2ccc3c(nc(N(C)c4ccc(C#N)cc4)n3[C@@H]3CCC[C@@H](C(=O)O)C3)c2CC[C@@H]1C [Example 681]	1 to 1000 µM
COC(=O)N1c2ccc3c(nc(Cc4cc(C(F)(F)F)cnn4)n3[C@@H]3CCC[C@@H](C(=O)O)C3)c2CC[C@@H]1C [Example 687]	1 to 1000 µM
COC(=O)N1c2ccc3c(nc(CN4CCC5(CC5)CC4=O)n3[C@@H]3CCC[C@@H](C(=O)O)C3)c2CC[C@@H]1C [Example 688]	1 to 1000 µM
COC(=O)N1c2ccc3c(nc(N(C)c4ccc(Cl)cc4)n3[C@H]3CC[C@H](C(=O)O)CC3)c2CC[C@@H]1C [Example 691]	1 to 1000 µM
COC(=O)N1c2ccc3c(nc(COC4CCCCC4)n3[C@H]3CC[C@H](C(=O)O)CC3)c2CC[C@@H]1C [Example 692]	1 to 1000 µM
COC(=O)N1c2ccc3c(nc(Cc4cccc(OC5CC5)n4)n3[C@@H]3CCC[C@@H](C(=O)O)C3)c2CC[C@@H]1C [Example 695]	1 to 1000 µM
COC(=O)N1c2ccc3c(nc(CN4CCC(C)(C)CC4=O)n3[C@@H]3CCC[C@@H](C(=O)O)C3)c2CC[C@@H]1C [Example 696]	1 to 1000 µM
COC(=O)N1c2ccc3c(nc(CC(C(=O)O)c4ccccc4)n3-c3cccc(C#N)c3)c2CC[C@@H]1C (stereo partly drawn) [Example 698]	1 to 1000 µM
COC(=O)N1c2ccc3c(nc(C(O)C4CCC(F)(F)CC4)n3C3CCCC(C(=O)O)C3)c2CC[C@@H]1C (stereo partly drawn) [Example 699]	1 to 1000 µM
COC(=O)N1c2ccc3c(nc(CC(C(=O)O)c4ccc(C)cc4)n3C3COCC(F)(F)C3)c2CC[C@@H]1C (stereo partly drawn) [Example 700]	1 to 1000 µM
COC(=O)N1c2ccc3c(nc(COC4CCCCC4)n3[C@@H]3CCC[C@@H](C(=O)O)C3)c2CC[C@@H]1C [Example 702]	1 to 1000 µM
COC(=O)N1c2ccc3c(nc(C4(c5cncc(C)n5)CC4)n3[C@@H]3CCC[C@@H](C(=O)O)C3)c2CC[C@@H]1C [Example 704]	1 to 1000 µM
COC(=O)N1c2ccc3c(nc(Cc4ccccc4C#N)n3[C@H]3CC[C@H](C(=O)O)CC3)c2CC[C@@H]1C [Example 706]	1 to 1000 µM
COC(=O)N1c2ccc3c(nc(Cc4cccc(C#N)c4)n3[C@H]3CC[C@H](C(=O)O)CC3)c2CC[C@@H]1C [Example 707]	1 to 1000 µM
COC(=O)N1c2ccc3c(nc(C(O)c4ccccc4)n3C3CCC(C(=O)O)CC3)c2CC[C@@H]1C (stereo partly drawn) [Example 708]	1 to 1000 µM

SMILES	IC50
COC(=O)N1c2ccc3c(nc(C(C)Cn4cc(Cl)cn4)n3C3CCS(=O)(=O)C3)c2CC[C@@H]1C (stereo partly drawn) [Example 709]	1 to 1000 µM
COC(=O)N1c2ccc3c(nc(C4(Cn5cccn5)CC4)n3[C@H]3CC[C@H](C(=O)O)CC3)c2CC[C@@H]1C [Example 710]	1 to 1000 µM
COC(=O)N1c2ccc3c(nc(COC4CCCC4)n3[C@@H]3CCC[C@@H](C(=O)O)C3)c2CC[C@@H]1C [Example 711]	1 to 1000 µM
COC(=O)N1c2ccc3c(nc(C(O)CC4CCC(F)(F)CC4)n3C3CCCC(C(=O)O)C3)c2CC[C@@H]1C (stereo partly drawn) [Example 712]	1 to 1000 µM
COC(=O)N1c2ccc3c(nc(Cn4cc(C(C)C)cn4)n3[C@H]3CC[C@H](C(=O)O)CC3)c2CC[C@@H]1C [Example 714]	1 to 1000 µM
COC(=O)N1c2ccc3c(nc(C(NC(C)=O)c4ccccc4)n3C3CCC(C(=O)O)CC3)c2CC[C@@H]1C (stereo partly drawn) [Example 717]	1 to 1000 µM
COC(=O)N1c2ccc3c(nc(Cc4cccc(C)c4)n3[C@@H]3CCC[C@@H](C(=O)O)C3)c2CC[C@@H]1C [Example 718]	1 to 1000 µM
COC(=O)N1c2ccc3c(nc(C(C)Cc4ccc(F)c(F)c4)n3C3CCCC(C(=O)O)C3)c2CC[C@@H]1C (stereo partly drawn) [Example 720]	1 to 1000 µM
COC(=O)N1c2ccc3c(nc(C[C@H]4CC[C@H](OC)CC4)n3[C@@H]3CCC[C@@H](C(=O)O)C3)c2CC[C@@H]1C [Example 723]	1 to 1000 µM
COC(=O)N1c2ccc3c(nc(C(C)OC4CCOCC4)n3C3CCC(C(=O)O)CC3)c2CC[C@@H]1C (stereo partly drawn) [Example 724]	1 to 1000 µM
COC(=O)N1c2ccc3c(nc(C(c4ccccc4)[S+](C)[O-])n3C3CCC(C(=O)O)CC3)c2CC[C@@H]1C (stereo partly drawn) [Example 725]	1 to 1000 µM
COC(=O)N1c2ccc3c(nc(CC4CCC(C#N)CC4)n3C3CCCC(C(=O)O)C3)c2CC[C@@H]1C (stereo partly drawn) [Example 726]	1 to 1000 µM
COC(=O)N1c2ccc3c(nc(CC(C(=O)O)c4cccc(F)c4)n3C3CCCOC3)c2CC[C@@H]1C (stereo partly drawn) [Example 728]	1 to 1000 µM
COC(=O)N1c2ccc3c(nc(CC4CCC(OC)CC4)n3C3CCC(C(=O)O)CC3)c2CC[C@@H]1C (stereo partly drawn) [Example 729]	1 to 1000 µM
COC(=O)N1c2ccc3c(nc(C(C)C(=O)N4CCCC4)n3C3CCCC(C(=O)O)C3)c2CC[C@@H]1C (stereo partly drawn) [Example 732]	1 to 1000 µM
COC(=O)N1c2ccc3c(nc(Cn4cc(C5CC5)cn4)n3[C@H]3CC[C@H](C(=O)O)CC3)c2CC[C@@H]1C [Example 733]	1 to 1000 µM
COC(=O)N1c2ccc3c(nc(Cn4cc(Cl)cn4)n3[C@H]3CC[C@H](C(=O)O)CC3)c2CC[C@@H]1C [Example 737]	1 to 1000 µM
COC(=O)N1c2ccc3c(nc(Cc4cnc(C)cn4)n3[C@@H]3CCC[C@@H](C(=O)O)C3)c2CC[C@@H]1C [Example 738]	1 to 1000 µM
COC(=O)N1c2ccc3c(nc(Cc4ccc(OC)c(OC)c4)n3[C@H]3CC[C@H](C(=O)O)CC3)c2CC[C@@H]1C [Example 740]	1 to 1000 µM
COC(=O)N1c2ccc3c(nc(COC4CCOCC4)n3[C@@H]3CCC[C@@H](C(=O)O)C3)c2CC[C@@H]1C [Example 741]	1 to 1000 µM
COC(=O)N1c2ccc3c(nc(C(C)Cc4cnn(C)c4)n3C3CCCC(C(=O)O)C3)c2CC[C@@H]1C (stereo partly drawn) [Example 742]	1 to 1000 µM
COC(=O)N1c2ccc3c(nc(CCc4ccccc4C(=O)O)n3C3CCOCC3)c2CC[C@@H]1C [Example 743]	1 to 1000 µM

From patent US11292791B2 (priority 2017, dated 2022)
